Source: paper PMC4645160, “Targeting kinases with anilinopyrimidines: discovery of N-phenyl-N’-[4-(pyrimidin-4-ylamino)phenyl]urea derivatives as selective inhibitors of class III receptor tyrosine kinase subfamily” (Scientific Reports, 2015)

Assays:
A549 cells = experiment: MTT cytotoxicity assay, A549 lung cancer cells; type: cell-based, human; conditions: for IC50: Homo sapiens, A549, 72 h, MTT test, 72 h of drug treatment, read-out: A549 IC50 (μM) ± SD
Experimental: (§1) Compounds active against at least one kinase among EGFR and class III RTKs were evaluated for their cytotoxic properties against two different human cancer cell lines, namely non small cells A549 lung cancer cells (sensitive to EGFR inhibitors)[46] and pancreatic BxPC3 adenocarcinoma (sensitive to both PDGFRβ and EGFR inhibitors)[47][48] cells. […] The results, expressed as IC50 values (μM) calculated from the dose-survival curves obtained after 72 h of drug treatment from the MTT test, are reported in Table 1.
(§2) All compounds, except derivative 27, were dissolved in DMSO just before the experiment, and a calculated amount of drug solution was added to the cell growth medium to a final solvent concentration of 0.5%, which had no discernible effect on cell killing. Compound 27 was dissolved in a 0.9% NaCl solution just before the experiment.
(§3) Human lung (A549), breast (MCF-7), pancreas (BxPC3), and colon (LoVo) carcinoma cell lines along with melanoma (A375) were obtained from American Type Culture Collection (ATCC, Rockville, MD). Human non-tumor embryonic kidney HEK293 cells were obtained from European Collection of Cell Cultures (ECACC, Salisbury, UK). Human cervical carcinoma A431cells were kindly provided by Prof. F. Zunino (Division of Experimental Oncology B, Istituto Nazionale dei Tumori, Milan, Italy). Human ovarian cancer 2008 cells were kindly provided by Prof. G. Marverti (Dept. of Biomedical Science of Modena University, Italy). Cell lines were maintained in the logarithmic phase at 37 °C in a 5% carbon dioxide atmosphere using the following culture media containing 10% fetal calf serum (Euroclone, Milan, Italy), antibiotics (50 units ∙ mL^−1 penicillin and 50 μg ∙ mL^−1 streptomycin) and 2 mM l-glutamine: i) RPMI-1640 medium (Euroclone) for MCF-7, A431, BxPC3 and 2008 cells; ii) F-12 HAM’S (Sigma Chemical Co.) for A549 and LoVo cells; iii) D-MEM medium (Euroclone) for HEK293 cells.
(§4) The growth inhibitory effect towards human cell lines was evaluated by means of MTT (tetrazolium salt reduction) assay. Briefly, 3–8 ∙ 10^3 cells/well, dependent upon the growth characteristics of the cell line, were seeded in 96-well microplates in growth medium (100 μL) and then incubated at 37 °C in a 5% carbon dioxide atmosphere. After 24 h, the medium was removed and replaced with a fresh one containing the test compound at the appropriate concentration. Triplicate cultures were established for each treatment. After 72 h, each well was treated with 10 μL of a 5 mg ∙ mL-1 MTT (3-(4,5-dimethylthiazol-2-yl)-2,5-diphenyltetrazolium bromide) saline solution, and after 5 h additional incubation, 100 μL of a sodium dodecylsulfate (SDS) solution in HCl 0.01 M were added. After overnight incubation, the inhibition of cell growth induced by the tested complexes was detected by measuring the absorbance of each well at 570 nm using a Bio-Rad 680 microplate reader (Bio-Rad, Hercules, CA). Mean absorbance for each drug dose was expressed as a percentage of the control untreated well absorbance and plotted vs drug concentration.

BxPC3 cells = experiment: MTT cytotoxicity assay, BxPC3 pancreatic adenocarcinoma cells; type: cell-based, human; conditions: for IC50: Homo sapiens, BXPC-3, MTT test, 72 h of drug treatment, read-out: BxPC3 IC50 (μM) ± SD
Experimental: as §1, §2, §3, §4

2008 cells = experiment: MTT cytotoxicity assay, 2008 ovarian cancer cells; type: cell-based; conditions: Homo sapiens; MTT test, 72 h; read-out: 2008 IC50 (μM) ± SD
Experimental: (§5) The cytotoxic profile of 19 and 27 was assessed on a wider panel of human tumor cell lines including also examples of breast (MCF-7), cervical (A431), colorectal (HCT-15), and ovarian (2008) cancers as well as melanoma (A375), besides lung (A549) and pancreatic (BxPC3) cancer cells. IC50 values, calculated from the dose-survival curves obtained after 72 h of drug treatment from the MTT test, are reported in Table 2. […] Both compounds were endowed with a cytotoxic potency higher than that of SU, eliciting IC50 values in the low micromolar range.
as §2
(§6) Human lung (A549), breast (MCF-7), pancreas (BxPC3), and colon (LoVo) carcinoma cell lines along with melanoma (A375) were obtained from American Type Culture Collection (ATCC, Rockville, MD). Human non-tumor embryonic kidney HEK293 cells were obtained from European Collection of Cell Cultures (ECACC, Salisbury, UK). Human cervical carcinoma A431cells were kindly provided by Prof. F. Zunino (Division of Experimental Oncology B, Istituto Nazionale dei Tumori, Milan, Italy). Human ovarian cancer 2008 cells were kindly provided by Prof. G. Marverti (Dept. of Biomedical Science of Modena University, Italy). […]
(§7) The growth inhibitory effect towards human cell lines was evaluated by means of MTT (tetrazolium salt reduction) assay. […] After overnight incubation, the inhibition of cell growth induced by the tested complexes was detected by measuring the absorbance of each well at 570 nm using a Bio-Rad 680 microplate reader (Bio-Rad, Hercules, CA). Mean absorbance for each drug dose was expressed as a percentage of the control untreated well absorbance and plotted vs drug concentration.

MCF-7 cells = experiment: MTT cytotoxicity assay, MCF-7 breast cancer cells; type: cell-based; conditions: Homo sapiens, MCF7; MTT test, 72 h; read-out: MCF-7 IC50 (μM) ± SD
Experimental: as §5, §2, §6, §7

A431 cells = experiment: MTT cytotoxicity assay, A431 epidermoid carcinoma cells; type: cell-based; conditions: Homo sapiens, A-431; MTT test, 72 h; read-out: A431 IC50 (μM) ± SD
Experimental: F. Zunino (Division of Experimental Oncology B, Istituto Nazionale dei Tumori, Milan, Italy).
The growth inhibitory effect towards human cell lines was evaluated by means of MTT (tetrazolium salt reduction) assay. […] Triplicate cultures were established for each treatment.

A375 cells = experiment: MTT cytotoxicity assay, A375 melanoma cells; type: cell-based; conditions: Homo sapiens, A-375; MTT test, 72 h; read-out: A375 IC50 (μM) ± SD
Experimental: as §5, §2, §6, §7

PDGFRα = biological target: T1, PDGFRα (Homo sapiens, UniProt P16234); experiment: KinomeScan Kd determination, PDGFRα; type: binding; conditions: for KdRTK/KdKIT, PDGFRα: Kd PDGFRα over Kd KIT; for Kd: KinomeScan
T1 construct: purchased DiscoverX (KinomeScan service)
T1 sequence (P16234 24-1089): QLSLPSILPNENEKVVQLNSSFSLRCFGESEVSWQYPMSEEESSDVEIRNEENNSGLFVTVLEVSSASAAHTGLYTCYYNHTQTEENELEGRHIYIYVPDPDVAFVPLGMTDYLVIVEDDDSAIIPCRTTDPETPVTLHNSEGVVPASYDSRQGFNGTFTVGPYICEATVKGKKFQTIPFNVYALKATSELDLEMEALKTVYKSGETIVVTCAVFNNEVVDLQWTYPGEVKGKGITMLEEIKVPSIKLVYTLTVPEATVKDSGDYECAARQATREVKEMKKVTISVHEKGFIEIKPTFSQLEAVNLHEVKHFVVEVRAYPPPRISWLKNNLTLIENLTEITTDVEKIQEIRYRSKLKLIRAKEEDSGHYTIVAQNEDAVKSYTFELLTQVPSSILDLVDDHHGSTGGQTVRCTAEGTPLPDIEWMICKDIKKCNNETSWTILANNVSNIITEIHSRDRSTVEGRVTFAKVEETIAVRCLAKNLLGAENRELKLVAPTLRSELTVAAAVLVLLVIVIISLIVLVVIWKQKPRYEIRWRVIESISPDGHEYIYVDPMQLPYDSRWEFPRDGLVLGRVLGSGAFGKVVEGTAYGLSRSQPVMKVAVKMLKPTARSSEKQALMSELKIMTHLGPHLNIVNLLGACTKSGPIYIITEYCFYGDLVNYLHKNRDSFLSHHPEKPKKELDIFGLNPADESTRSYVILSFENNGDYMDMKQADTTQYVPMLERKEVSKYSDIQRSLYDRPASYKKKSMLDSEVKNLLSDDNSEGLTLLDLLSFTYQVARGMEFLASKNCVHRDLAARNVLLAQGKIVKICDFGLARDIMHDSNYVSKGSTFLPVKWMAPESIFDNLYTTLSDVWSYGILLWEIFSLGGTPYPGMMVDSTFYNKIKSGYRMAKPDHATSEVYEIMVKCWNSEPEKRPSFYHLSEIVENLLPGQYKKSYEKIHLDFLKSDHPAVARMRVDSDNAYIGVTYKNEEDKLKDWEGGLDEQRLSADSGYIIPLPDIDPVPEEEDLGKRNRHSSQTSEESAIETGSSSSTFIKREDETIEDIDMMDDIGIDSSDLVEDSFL
Experimental: The compounds were evaluated using the KinomeScan™ platform (http://www.discoverx.com/services/drug-discovery-development-services/kinase-profiling/kinomescan), that measures the ability of the test compound to disrupt the complex between a high affinity ATP-mimic probe immobilized on a solid support and the kinase of interest. The KinomeScan is a very helpful technology for the fast and reliable screening of a number of compounds against a wide and customizable panel of kinases. Besides, it is not based on the use of hazardous radioactive ^32P-ATP and has a very low rate of false positive (<1%)[44]. The screening platform outputs a “Percent of Control” (POC) value, statistically correlated to the dissociation constant (Kd) value (http://www.discoverx.com/tools-resources/leadhunter-study-reports-data-analysis), for each pair of kinase/ligand. The POC is calculated as reported in equation (1): […]
The ability of compounds 19 and 27 to bind the class III RTK members was measured (Table 2; see also Figs S3 and S4 for dose/response curves).
Figure S3. Dose/response curve for compound 19 against tested kinases for Kd determination. The amount of kinase measured by qPCR (Signal; y-axis) is plotted against the corresponding compound concentration in nM in log10 scale (x-axis). Data points marked with an "x" were not used for Kd determination.
(1 picture or pasted object on this page, not shown here)
Figure S4. Dose/response curve for compound 27 against tested kinases for Kd

| Structure (SMILES) | IC50 (A549 cells) [µM] | Potency relative to SU (A549) (A549 cells; ratio between IC50 of sunitinib and IC50 of tested compound, A549) | IC50 (BxPC3 cells) [µM] | IC50 (2008 cells) [µM] | IC50 (MCF-7 cells) [µM] | IC50 (A431 cells) [µM] | IC50 (A375 cells) [µM] | KdRTK/KdKIT, PDGFRα (PDGFRα) | Kd (PDGFRα) [nM] | Potency relative to SU (BxPC3) (BxPC3 cells; ratio between IC50 of sunitinib and IC50 of tested compound, BxPC3) | Potency improvement Kd19/Kd27, PDGFRα (PDGFRα; 27 versus 19) |
| --- | --- | --- | --- | --- | --- | --- | --- | --- | --- | --- | --- |
| O=C(Nc1ccccc1)Nc1ccc(Nc2cc(-c3ccccc3)ncn2)cc1 [Compound 19] | 3.16 ± 1.12 | 1.97 | 0.77 ± 0.21 | 1.98 ± 0.75 | 1.23 ± 0.89 | 2.85 ± 1.03 | 6.41 ± 2.02 | 44 | 960 |  |  |
| O=C(CN1CCOCC1)Nc1cccc(-c2cc(Nc3ccc(NC(=O)Nc4ccccc4)cc3)ncn2)c1 [Compound 27] | 3.11 ± 1.09 |  | 0.81 ± 0.32 | 1.82 ± 0.73 | 1.55 ± 0.75 | 1.96 ± 0.92 | 5.56 ± 1.39 | 11 | 110 | 6 | 8.7 |
